Laboratory results: patent publication US6469042B1, “Fluoro oxindole derivatives as modulators if KCNQ potassium channels” (Bristol-Myers Squibb Company, priority 2001, dated 2002)
Marks after values point to notes of the source that are not given here.

Columns and labels:
[1] = target: T1, cloned mouse KCNQ2 (mKCNQ2) (Mus musculus, UniProt Q9Z351); assay: KCNQ oocyte two-electrode voltage clamp, KCNQ2-mediated outward current; format: cell-based; conditions: expressed as percent increase over KCNQ current in controls, Xenopus oocytes
T1 construct: expressed in transfected cells; host or cells: Xenopus oocytes injected with mKCNQ2 cRNA
Protocol: The ability of compounds described in the present invention to open KCNQ channels and increase whole-cell outward (K^+) KCNQ-mediated currents was assessed under voltage-clamp conditions by determining their ability to increase cloned mouse KCNQ2 (mKCNQ2)-mediated, heteromultimeric KCNQ2/3 (mμKCNQ2/3)-mediated, and human KCNQ5 (hKCNQ5)-mediated outward currents heterologously expressed in Xenopus oocytes. Oocytes were prepared and injected using standard techniques; each oocyte was injected with approximately 50 nl of mKCNQ2, or hKCNQ5 cRNA. In the case of mKCNQ2/3 heteromultimeric channel expression, equal amounts (25-50 nL) of ech cRNA were co-injected. […] Following injection, oocytes were maintained at 17° in ND96 medium consisting of (in mM): NaCl, 90; KCl, 1.0; CaCl2, 1:0; MgCl2, 1:0; HEPES, 5.0; pH 7.5. Horse serum (5%) and penicillin/streptomyin (5%) were added to the incubation medium. Recording commenced 2-6 days following mRNA injection. Prior to the start of an experiment oocytes were placed in a recording chamber and incubated in Modified Barth's Solution (MBS) consisting of (in mM): NaCl, 88; NaHCO3, 2.4; KCl, 1.0; HEPES, 10; MgSO4, 0.82; Ca(NO3)2, 0.33; CaCl2, 0.41; pH 7.5.
Oocytes were impaled with electrodes (1-2 MΩ) and standard 2-electrode voltage clamp techniques were employed to record whole-cell membrane currents. Recordings were accomplished using standard two-electrode voltage clamp techniques [Stuhmer, W., et al., Methods in Enzymolgy, Vol. 207: 319-339 (1992)]. Voltage-clamp protocols typically consisted of a series of voltage steps 1-5 sec duration, in +10 mV steps from a holding potential of −90 mV to a maximal potential of +40 mV; records were digitized at 5 kHz and stored on a computer using pClamp data acquisition and analysis software (Axon Instruments). Compounds were evaluated at a single concentration (10 or 20 μM); the effect of the selected compounds of Formula I on KCNQ2 current was expressed as the percent of control current and is listed in Table I.

[2] = tested on: SSS-stimulated trigeminal field response in trigeminal nucleus caudalis; assay: In vivo electrophysiology: superior sagital sinus (SSS)-stimulated trigeminal field response (migraine model); set-up: species or system rat
Excerpt: Male Long-Evans rats (Harlan, 250-400 g) were used in the experiments described in this example. Prior to testing, rats were allowed access to food and water ad libitum and were maintained on a 12:12-h light/dark cycle. Rats were group housed in an Association for Assessment and Accreditation of Laboratory Animal Care (AAALAC) accredited facility and cared for in strict compliance with all applicable regulations.
Rats were anesthetized with 1.2 g/kg i.p. urethane (#U-2500, Sigma Chemical Company, St. Louis, Mo.) and given supplemental urethane as needed. In the case of intravenous (i.v.) drug administration, the jugular veins of the rats were cannulated using sylastic tubing pre-filled with vehicle.
Rats were placed in a stereotaxic device (#1730, David Kopf Instruments, Tujunga, Calif.) and an incision was made to expose the entire skull that continued caudally to the level of the C1/C2 vertebral juncture. Using a microdrill (#770, Dremel, Racine, Wis.) and #4 carbide burr (Henry Schein, Melville, N.Y.), a square section of skull was removed extending from the bregma position, rostrally, to the lambda position, caudally. […]
Stimulated field responses were recorded in the trigeminal nucleus caudalis using Teflon coated stainless-steel microelectrodes (5 megaohms impedance, Frederick Haer, Brunswick, Me.) and amplified and filtered (0.1 Hz-10 kHz) using a differential amplifier (#IsoDAM8, World Precision Instruments, Sarasota, Fla.). […]
Three baseline measures (i.e., 100% of control), each consisting of 100 evoked trigeminal field potentials, were sampled prior to drug injection. […] Following injection of test substances, data were sampled for 1 hour, averaged into 5 minute bins (90 evoked potentials) and expressed as a percent change from average baseline values for the purposes of statistical analysis. Data were analyzed using repeated measures analyses of variance comparing vehicle and drug effects. […]

T1 sequence (Q9Z351 whole entry): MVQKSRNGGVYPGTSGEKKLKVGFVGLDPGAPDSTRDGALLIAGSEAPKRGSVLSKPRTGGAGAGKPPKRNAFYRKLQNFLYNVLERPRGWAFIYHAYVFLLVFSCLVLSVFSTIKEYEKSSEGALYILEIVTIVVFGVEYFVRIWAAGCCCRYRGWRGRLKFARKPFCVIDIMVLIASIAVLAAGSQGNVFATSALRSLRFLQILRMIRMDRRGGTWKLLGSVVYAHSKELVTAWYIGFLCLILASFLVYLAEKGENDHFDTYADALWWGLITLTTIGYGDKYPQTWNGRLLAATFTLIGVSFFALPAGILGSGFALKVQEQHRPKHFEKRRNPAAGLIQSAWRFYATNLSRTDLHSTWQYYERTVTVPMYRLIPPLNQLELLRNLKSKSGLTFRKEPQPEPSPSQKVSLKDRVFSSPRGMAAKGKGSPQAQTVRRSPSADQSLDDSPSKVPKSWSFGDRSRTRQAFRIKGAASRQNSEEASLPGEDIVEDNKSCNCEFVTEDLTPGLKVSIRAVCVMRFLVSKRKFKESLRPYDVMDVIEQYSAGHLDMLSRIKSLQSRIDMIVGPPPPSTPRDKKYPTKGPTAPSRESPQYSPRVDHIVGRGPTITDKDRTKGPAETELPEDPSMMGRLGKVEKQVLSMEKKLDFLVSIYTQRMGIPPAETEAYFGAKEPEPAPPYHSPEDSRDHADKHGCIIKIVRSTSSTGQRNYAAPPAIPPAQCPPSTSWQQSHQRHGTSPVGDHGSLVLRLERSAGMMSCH

Compound	melting point [°C]	KCNQ2 Current ([1]; at 20 μM)	other results
O=C1Nc2cc(C(F)(F)F)ccc2C1(F)c1cc(Cl)ccc1OCC(F)(F)F (racemic) [Example 1, (±)-3-[5-Chloro-2-[(2,2,2-trifluoroethoxy)phenyl]-1,3-dihydro-3-fluoro-6-(trifluoromethyl)-2H-indol-2-one]	–	–	KCNQ2 Current ([1]; at 10 μM): ++** (++ = >150%)
O=C1Nc2cc(C(F)(F)F)ccc2C1(F)c1cc(Cl)ccc1OCC(F)(F)F (racemic) [Example 2, (±)-3-[5-Chloro-2-[(2,2,2-trifluoroethoxy)phenyl]-1,3-dihydro-3-fluoro-6-(trifluoromethyl)-2H-indol-2-one]	–	–	KCNQ2 Current ([1]; at 10 μM): ++** (++ = >150%); decrease from control amplitude of SSS-stimulated trigeminal field response ([2]; 50 mg/kg i.v., anesthetized Long-Evans rats, solution in 100% polyethylene glycol 400): 86.7±1.67%; reduction of trigeminal field response compared with vehicle ([2]; doses 0.1, 1.0, 10.0, 30.0 and 50.0 mg/kg i.v., p<0.01 in all cases): Significant reductions compared with vehicle; reduction in the SSS-stimulated trigeminal field response ([2]; i.v., rats, overall ANOVA p<0.001): dose-dependent reduction
O=C1Nc2cc(F)ccc2C1(F)c1cc(Cl)ccc1OCC(F)(F)F (racemic) [Example 6, (±)-3-[5-Chloro-2-(2,2,2-trifluoroethoxy)phenyl]-1,3-dihydro-3,6-difluoro-2H-indol-2-one]	200 to 202	–	–
O=C1Nc2cc(Cl)ccc2C1(F)c1cc(Cl)ccc1OCC(F)(F)F (racemic) [Example 11, (±)-6-Chloro-3-[5-chloro-2-(2,2,2-trifluoroethoxy)phenyl]-1,3-dihydro-3-fluoro-2H-indol-2-one]	167 to 169	++ (++ = >150%)	–
O=C1Nc2cc(C(F)(F)F)ccc2C1(F)c1cc(Cl)ccc1OCCF (racemic) [Example 14, (±)-3-[5-Chloro-2-(2-fluoroethoxy)phenyl]-1,3-dihydro-3-fluoro-6-(trifluoromethyl)-2H-indol-2-one]	–	+ (+ = 120-150%)	–
O=C1Nc2cc(-c3ccc(C(F)(F)F)cc3)ccc2C1(F)c1cc(Cl)ccc1OCC(F)(F)F (racemic) [Example 23, (±)-3-[5-Chloro-2-(2,2,2-trifluoroethoxy)phenyl]-1,3-dihydro-3-fluoro-6-[4-(trifluoromethyl)phenyl]-2H-indol-2-one]	103 to 105	–	–
O=C1Nc2cc(Cl)ccc2C1(F)c1cc(Cl)ccc1OCC(F)(F)F (single isomer, unassigned; (+)) [Example 12, (+)-6-Chloro-3-[5-chloro-2-(2,2,2-trifluoroethox)phenyl]-1,3-dihydro-3-fluoro-2H-indol-2-one]	–	++ (++ = >150%)	–

Further lines, with some results ahead:

melting point [°C]	KCNQ2 Current ([1]; at 20 μM)	Compound	other results
150 to 151	–	O=C1Nc2cc(CF)ccc2C1(F)c1cc(Cl)ccc1OCC(F)(F)F (racemic) [Example 7, (±)-3-[5-Chloro-2-(2,2,2-trifluoroethoxy)phenyl]-1,3-dihydro-3-fluoro-6-(fluoromethyl)-2H-indol-2-one]	–
200 to 203	+ (+ = 120-150%)	O=C1Nc2cc(F)c(F)cc2C1(F)c1cc(Cl)ccc1OCC(F)(F)F (racemic) [Example 10, (±)-3-[5-Chloro-2-(2,2,2-trifluoroethoxy)phenyl]-1,3-dihydro-3,5,6-trifluoro-2H-indol-2-one]	–
105 to 107	–	CCSc1ccc(Cl)cc1C1(F)C(=O)Nc2cc(C(F)(F)F)ccc21 (stereo not shown) [Example 17, 3-[5-Chloro-2-(ethylthio)phenyl]-1,3-dihydro-3-fluoro-6-(trifluoromethyl)-2H-indol-2-one]	–
–	+ (+ = 120-150%)	(±)-3-[5-Chloro-2-(2,2,2-trifluoroethoxy)phenyl]-5,6-dichloro-1,3-dihydro-3-fluoro-2H-indol-2-one [Example 9]	–
